One data set has as its system mice. Description: Toxicity of formulated Compound XI in mice. Type of data set: in vivo. The following applies: nanoemulsion, intravenously on three consecutive days, doses up to 60 mg/kg, observed at the end of one week. As for the experimental part:
Compound XI was successfully formulated in a nanoemulsion at a concentration of 3 mg/ml. The nanoemulsion has an oil phase consisting of an injectable oil and lecithin and an aqueous phase comprising a tonicity adjuster, a stabilizer and water. The emulsions are of oil-in-water type with the mean oil droplets less than 100 nm. Each vehicle is at neutral pH (5-7) and about isotonic. The toxicity of formulated Compound XI was tested in mice. Mice were injected intravenously on three consecutive days with Compound XI at doses of up to 60 mg/kg and observed at the end of one week.

For data set [1] the following is noted: trifluridine alone; cited from earlier work.
A further data set concerns MDA-MB-231. Description: In vitro cytotoxicity, breast. The note with it: Homo sapiens, MDA-MB-231, read-out: In vitro cytotoxicity IC50, Breast MDA-MB-231. Format: cell-based.
Another data set concerns HCT-116. In words: In vitro cytotoxicity, colon. Type of data set: cell-based. The note with it: Homo sapiens, HCT-116, read-out: In vitro cytotoxicity IC50, Colon HCT-116.
The next data set has as its system L1210. Description: In vitro cytotoxicity, leukemia. Type of data set: cell-based. The note with it: Mus musculus.
Data set [2] is described as follows: Release of 5-azacytidine from prodrug by hydrolysis in PBS. Type of data set: physicochemical. The note with it: PBS at room temperature (20° C.).

Where two headings read alike, the source gives them in different places.

Take `C[Si](C)(C)OC[C@H]1O[C@@H](n2cnc(N)nc2=O)C(F)(F)C1O[Si](C)(C)C` (stereo partly shown) [Compound XI, 2′,2′-Difluoro-5-azadeoxycytidine-trimethylsilyl]: in the data set with mice, the “Toxicity as measured by weight loss” value is listed as “No evidence of toxicity”.
As a reminder, the half-life is how long it takes for the measured level to halve. Take `O=c1[nH]c(=O)n([C@H]2C[C@H](O)[C@@H](CO)O2)cc1C(F)(F)F` [Trifluridine, 5-trifluorothymidine]: the half-life in data set [1] is 12 min.
The term IC50 denotes the concentration at which inhibition is half-maximal. As for `C[Si](C)(C)OC[C@H]1O[C@@H](n2cnc(N)nc2=O)[C@@H](O[Si](C)(C)C)C1O[Si](C)(C)C` (stereo partly shown) [NUC025, 2′,3′,5′-Tri(trimethylsilyl)-5-azacytidine], the IC50 with MDA-MB-231 amounted to 3280 nM; in the data set on HCT-116, 1080 nM; in the data set on L1210 (L1210, read-out: In vitro cytotoxicity IC50, Leukemia L1210), 1180 nM. For the same molecule, in data set [2], the “Active drug (5-azacytidine) recovered by hydrolysis” value is “approximately 80%”.
For `Nc1ncn([C@@H]2O[C@H](CO)[C@@H](O)[C@H]2O)c(=O)n1` [5-azacyctidine, 5-azacytidine, reference compound], the 50% inhibitory concentration (IC50) with L1210 (L1210 leukemia, read-out: In vitro cytotoxicity IC50, Leukemia L1210) was 1700 to 2400 nM.

The record behind these values is patent publication US10479807B2, “Silylated pyrimidine prodrugs and methods of their use” (priority 2014, dated 2019).
